Test results reported in US9511134B2, “Inducing immune responses to influenza virus using polypeptide and nucleic acid compositions” (priority 2006, dated 2016).
Values joined by “and” are separate entries in the source; they are usually repeats but may differ in a detail not shown here. Equal entries are not always repeated. Where two headings read alike, the source gives them in different places. Where no end group is shown, it is not given here.

Tests used:
[1] = test system: CD4+ PBMC; type: cell-based, human; conditions: IFNγ ELISPOT, CD8-depleted; for Human influenza epitope-specific immune response, donor 3501: PBMC rested five days
[2] = molecular target: DRB1*0404 (Homo sapiens, UniProt P01903+P01911, A100R/A169T/F76Y/I96L/K127E/L162R/M171V/N62H/P40V/Q125Y/R42H/S133A/S149N/S66Y/V209L/W38E); assay: biochemical; type: binding; conditions: IC50 nM to purified HLA DRB1*0404
[3] = molecular target: T1, DRB1*0401 (Homo sapiens, UniProt P01903+P01911, A100K/A169T/F76Y/I96L/K127E/L162R/M171V/N62H/P40V/Q125Y/R42H/S133A/S149N/S66Y/V115G/V209L/W38E); assay: biochemical; type: binding; conditions: read-out: IC50 nM to purified HLA DRB1*0401
T1 construct: made in house; host or cells: EBV-transformed homozygous human B cell lines, transfected fibroblasts or single-allele 721.221 transfectants

[4] = molecular target: T2, DRB1*0101 (Homo sapiens, UniProt P01903+P01911, A100R/D57E/F55L/F60I/F76Y/I96L/L162R/M171V/P40L/Q125E/R42F/V115G/Y59C); assay: biochemical; type: binding
T2 construct: made in house; host or cells: EBV-transformed homozygous human B cell lines, transfected fibroblasts or single-allele 721.221 transfectants

[5] = molecular target: DRB1*0405 (Homo sapiens, UniProt P01903+P01911, A100R/A169T/D86S/F76Y/I96L/K127E/L162R/M171V/N62H/P40V/Q125Y/R42H/S133A/S149N/S66Y/V115G/V209L/W38E); assay: biochemical; type: binding; conditions: read-out: IC50 nM to purified HLA DRB1*0405
[6] = five day expansion with peptide pool

In the case of `CC[C@H](C)[C@H](NC(=O)[C@H](CC(C)C)NC(=O)[C@@H]1CCCN1C(=O)[C@@H](N)CC(N)=O)C(=O)N[C@@H](CCCNC(=N)N)C(=O)N[C@@H](Cc1c[nH]cn1)C(=O)N[C@@H](CCC(=O)O)C(=O)N[C@@H](CC(N)=O)C(=O)N[C@@H](CCCNC(=N)N)C(=O)N[C@@H](CCSC)C(=O)N[C@H](C(=O)N[C@@H](CC(C)C)C(=O)N[C@@H](C)C(=O)N[C@@H](CO)C(=O)N[C@H](C(=O)O)[C@@H](C)O)C(C)C` [Flu.M1.173], the “Human influenza epitope-specific immune response, donor AC02” value [1, 6] is reported as “Positive (Donors were considered positive for a peptide if the number of spots was over 3 times background as determined by responses to irrelevant peptides (non influenza))”.
With `CSCC[C@H](NC(=O)[C@H](C)NC(=O)[C@H](CCC(N)=O)NC(=O)[C@@H](NC(=O)[C@H](CCSC)NC(=O)[C@H](CCC(N)=O)NC(=O)[C@H](CCCNC(=N)N)NC(=O)[C@H](C)NC(=O)[C@H](CCC(N)=O)NC(=O)[C@H](CO)NC(=O)[C@H](C)NC(=O)[C@@H](NC(=O)[C@H](CCC(=O)O)NC(=O)[C@H](CCSC)NC(=O)[C@H](C)N)C(C)C)C(C)C)C(=O)O` [Flu.M1.205] the “Human influenza epitope-specific immune response, donor 6018” value [1, 6] was “Positive (Donors were considered positive for a peptide if the number of spots was over 3 times background as determined by responses to irrelevant peptides (non influenza))” and the “Human influenza epitope-specific immune response, donor AC02” value [1, 6] was “Positive (Donors were considered positive for a peptide if the number of spots was over 3 times background as determined by responses to irrelevant peptides (non influenza))”.
For `CSCC[C@H](NC(=O)[C@H](Cc1c[nH]c2ccccc12)NC(=O)[C@@H](NC(=O)[C@H](CC(C)C)NC(=O)[C@H](CCC(N)=O)NC(=O)[C@H](CO)NC(=O)[C@@H](N)CCCCN)C(C)C)C(=O)N[C@@H](C)C(=O)N[C@@H](CS)C(=O)N[C@@H](Cc1c[nH]cn1)C(=O)N[C@@H](CO)C(=O)N[C@@H](C)C(=O)N[C@@H](C)C(=O)N[C@@H](Cc1ccccc1)C(=O)N[C@@H](CCC(=O)O)C(=O)O` [Flu.NF.328], the “Human influenza epitope-specific immune response, donor 753” value [1, 6] was “Positive (Donors were considered positive for a peptide if the number of spots was over 3 times background as determined by responses to irrelevant peptides (non influenza))”.
`CC[C@H](C)[C@H](NC(=O)[C@H](CC(C)C)NC(=O)[C@H](CCC(=O)O)NC(=O)[C@H](CCSC)NC(=O)[C@@H](NC(=O)[C@H](CCSC)NC(=O)[C@@H](NC(=O)CNC(=O)[C@@H](N)C(C)C)[C@@H](C)O)C(C)C)C(=O)N[C@@H](CCCNC(=N)N)C(=O)N[C@@H](CCSC)C(=O)N[C@H](C(=O)N[C@@H](CCCCN)C(=O)N[C@@H](CCCNC(=N)N)C(=O)NCC(=O)O)[C@@H](C)CC` [Flu.NP.189] was tested, and the “Human influenza epitope-specific immune response, donor 753” value [1, 6] was “Positive (Donors were considered positive for a peptide if the number of spots was over 3 times background as determined by responses to irrelevant peptides (non influenza))”, the “Human influenza epitope-specific immune response, donor 6018” value [1, 6] was “Positive (Donors were considered positive for a peptide if the number of spots was over 3 times background as determined by responses to irrelevant peptides (non influenza))” and the “Human influenza epitope-specific immune response, donor AC08” value [1, 6] was “Positive (Donors were considered positive for a peptide if the number of spots was over 3 times background as determined by responses to irrelevant peptides (non influenza))”.
For `CC[C@H](C)[C@H](NC(=O)[C@H](CC(C)C)NC(=O)[C@H](C)NC(=O)[C@H](CO)NC(=O)[C@H](CCCNC(=N)N)NC(=O)[C@H](C)NC(=O)[C@H](CC(C)C)NC(=O)[C@H](Cc1ccccc1)NC(=O)[C@@H](NC(=O)[C@H](CC(C)C)NC(=O)[C@@H](N)CC(=O)O)[C@@H](C)CC)C(=O)N[C@@H](CC(C)C)C(=O)N[C@@H](CCCNC(=N)N)C(=O)NCC(=O)N[C@@H](CO)C(=O)O` [Flu.NP.258], the “Human influenza epitope-specific immune response, donor 6018” value [1, 6] was “Positive (Donors were considered positive for a peptide if the number of spots was over 3 times background as determined by responses to irrelevant peptides (non influenza))”.
For `CC[C@H](C)[C@H](NC(=O)[C@H](CCC(N)=O)NC(=O)CNC(=O)[C@H](C)N)C(=O)N[C@@H](CO)C(=O)N[C@H](C(=O)N[C@@H](CCC(N)=O)C(=O)N1CCC[C@H]1C(=O)N[C@H](C(=O)N[C@@H](Cc1ccccc1)C(=O)N[C@@H](CO)C(=O)N[C@H](C(=O)N[C@@H](CCC(N)=O)C(=O)N[C@@H](CCCNC(=N)N)C(=O)N[C@@H](CC(N)=O)C(=O)O)C(C)C)[C@@H](C)O)C(C)C` [Flu.NP.406], the “Human influenza epitope-specific immune response, donor 3501” value [1] was “Positive (Donors were considered positive for a peptide if the number of spots was over 3 times background as determined by responses to irrelevant peptides (non influenza))”.
For `CC[C@H](C)[C@H](NC(=O)[C@H](C)NC(=O)CNC(=O)[C@@H](N)CCC(=O)O)C(=O)N[C@H](C(=O)NCC(=O)N[C@@H](CCC(=O)O)C(=O)N[C@H](C(=O)N[C@@H](CO)C(=O)N1CCC[C@H]1C(=O)N[C@@H](CC(C)C)C(=O)N1CCC[C@H]1C(=O)N[C@@H](CO)C(=O)N[C@@H](CC(C)C)C(=O)N1CCC[C@H]1C(=O)O)[C@@H](C)CC)C(C)C` [Flu.NS1.156], the IC50 [2] was 13 nM, the “Human influenza epitope-specific immune response, donor 3501” value [1] was “Positive (Donors were considered positive for a peptide if the number of spots was over 3 times background as determined by responses to irrelevant peptides (non influenza))” and the IC50 ([3]; Table 4) was 48 nM. For the same compound, the IC50 [3] was 48 nM and 27 nM, the IC50 ([4]; IC50 nM to purified HLA DRB1*0101) was 85 nM and the IC50 ([4]; IC50 nM to purified HLA DRB1*0101, Table 4) was 85 nM.
For `CSCC[C@H](NC(=O)[C@H](CO)NC(=O)[C@@H](NC(=O)[C@H](Cc1ccccc1)NC(=O)[C@H](CC(N)=O)NC(=O)[C@@H](N)C(C)C)C(C)C)C(=O)N[C@@H](CCC(=O)O)C(=O)N[C@@H](Cc1ccccc1)C(=O)N[C@@H](CO)C(=O)N[C@@H](CC(C)C)C(=O)N[C@H](C(=O)N[C@@H](CC(=O)O)C(=O)N1CCC[C@H]1C(=O)N[C@@H](CCCNC(=N)N)C(=O)N[C@@H](CC(C)C)C(=O)O)[C@@H](C)O` [Flu.PA.521], the IC50 [5] was 7700 nM.
For `CSCC[C@H](NC(=O)CNC(=O)[C@H](CCSC)NC(=O)[C@@H](N)CCSC)C(=O)N[C@@H](Cc1ccccc1)C(=O)N[C@@H](CC(N)=O)C(=O)N[C@@H](CCSC)C(=O)N[C@@H](CC(C)C)C(=O)N[C@@H](CO)C(=O)N[C@H](C(=O)N[C@H](C(=O)N[C@@H](CC(C)C)C(=O)NCC(=O)N[C@H](C(=O)N[C@@H](CO)C(=O)O)C(C)C)C(C)C)[C@@H](C)O` [Flu.PB1.411], the “Human influenza epitope-specific immune response, donor 3501” value [1] was “Positive (Donors were considered positive for a peptide if the number of spots was over 3 times background as determined by responses to irrelevant peptides (non influenza))”, the “Human influenza epitope-specific immune response, donor 716” value [1, 6] was “Positive (Donors were considered positive for a peptide if the number of spots was over 3 times background as determined by responses to irrelevant peptides (non influenza))” and the “Human influenza epitope-specific immune response, donor 753” value [1, 6] was “Positive (Donors were considered positive for a peptide if the number of spots was over 3 times background as determined by responses to irrelevant peptides (non influenza))”. The “Human influenza epitope-specific immune response, donor 6018” value [1, 6] was “Positive (Donors were considered positive for a peptide if the number of spots was over 3 times background as determined by responses to irrelevant peptides (non influenza))”.
For `CC[C@H](C)[C@H](NC(=O)CNC(=O)[C@H](CCC(=O)O)NC(=O)[C@H](Cc1c[nH]cn1)NC(=O)[C@H](CC(N)=O)NC(=O)[C@@H]1CCCN1C(=O)[C@H](C)NC(=O)[C@H](CC(N)=O)NC(=O)[C@@H](NC(=O)[C@@H](NC(=O)[C@H](CC(C)C)NC(=O)[C@H](C)NC(=O)[C@H](Cc1ccccc1)NC(=O)[C@@H](N)CC(=O)O)[C@@H](C)CC)C(C)C)C(=O)N[C@@H](CCC(N)=O)C(=O)O` [Flu.PB1.449], the “Human influenza epitope-specific immune response, donor 3501” value [1] was “Positive (Donors were considered positive for a peptide if the number of spots was over 3 times background as determined by responses to irrelevant peptides (non influenza))”.
With `CSCC[C@H](NC(=O)[C@H](CO)NC(=O)[C@H](Cc1ccccc1)NC(=O)[C@H](CC(N)=O)NC(=O)[C@H](C)NC(=O)[C@@H](NC(=O)[C@H](Cc1ccccc1)NC(=O)CNC(=O)[C@@H](N)Cc1ccc(O)cc1)C(C)C)C(=O)N[C@@H](CCC(=O)O)C(=O)N[C@@H](CC(C)C)C(=O)N1CCC[C@H]1C(=O)N[C@@H](CO)C(=O)N[C@@H](Cc1ccccc1)C(=O)NCC(=O)O` [Flu.PB1.502] the “Human influenza epitope-specific immune response, donor 3501” value [1] was “Positive (Donors were considered positive for a peptide if the number of spots was over 3 times background as determined by responses to irrelevant peptides (non influenza))”.
Compound `CC[C@H](C)[C@H](NC(=O)[C@H](CCCNC(=N)N)NC(=O)[C@H](C)NC(=O)[C@H](CCCNC(=N)N)NC(=O)[C@H](CO)NC(=O)[C@@H](N)C(C)C)C(=O)N[C@@H](CC(=O)O)C(=O)N[C@@H](C)C(=O)N[C@@H](CCCNC(=N)N)C(=O)N[C@H](C(=O)N[C@@H](CC(=O)O)C(=O)N[C@@H](Cc1ccccc1)C(=O)N[C@@H](CCC(=O)O)C(=O)N[C@@H](CO)C(=O)NCC(=O)O)[C@@H](C)CC` [Flu.PB1.722] has an IC50 [5] of 3010 nM.
In the case of GSYFFGDNAEEYDN [Flu.NP.488], the IC50 [5] is reported as 65 nM and the IC50 [3] is reported as 1950 nM.
